Molecules are shown by their SMILES. Read-outs that look alike come from different tables or passages of the source. Bounds are passed on as bounds.

This experiment addresses T1, MIF (Homo sapiens, UniProt P14174).
T1 sequence (P14174 2-115 limits assumed): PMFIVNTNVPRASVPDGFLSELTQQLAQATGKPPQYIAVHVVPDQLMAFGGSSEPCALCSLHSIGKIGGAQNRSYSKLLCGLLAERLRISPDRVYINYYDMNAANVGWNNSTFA
Briefly: MIF tautomerase assay using pHPP as substrate. It counts as biochemical. To be noted: mean of multiple test results. How it is done: Tautomerase Assay Using pHPP as Substrate
This assay measured MIF's tautomerase activity in a cell-free system and was based on the determination of initial rates of the MIF-catalyzed conversion of the ketonic into the enolic tautomer of pHPP. This was achieved by spectrophotometric quantification of the complex between borate and the product of the reaction (enolic pHPP). The substrate was prepared by conversion of the enolic pHPP into its ketonic form. To achieve this, 0.5 M pHPP in methanol was diluted 10-fold with 50 mM sodium acetate buffer at pH 6.0, and then the suspension was shaken for 24 h at room temperature in darkness, and finally stored at 4° C. for not more than 1 week, with 5 min sonication being recommended before use.
Assays were performed in small-volume clear-bottom black 96 or 384-well polystyrene plates (Greiner Bio-One). First, 2 μL of the enzyme solution containing 6 nM of MIF in DPBS, 0.025% w/v BSA, and 300 μM CHAPS was dispensed onto sample and negative control wells using Multidrop Combi with metallic tip cassettes (Thermo Fisher Scientific) previously treated with Sigmacote. Then, 2 μL of the same buffer without MIF was dispensed onto positive control wells. The reaction was started by addition of the following to all wells: 2 μL of substrate solution containing 3 mM ketonic pHPP in 200 mM boric acid, 25 mM sodium phosphate, 0.025% w/v BSA, and 300 μM CHAPS at pH 6.0. In order to remove bubbles, the plate was centrifuged in an Allegra 25R centrifuge (Beckman Coulter, Inc., Brea, Calif.) at 1000 rpm for 2 min at room temperature. Then, the plate was read in an EnVision. Final concentrations of enzyme and substrate were 3 nM and 1.5 mM, respectively. Initial rates were calculated for each well as the slope of the absorbance progress curve.
All exemplified compounds (Examples 1-230) were tested in the MIF tautomerase assay or a similar assay described above. The data mentioned below represents a mean pIC50 value of multiple test results. It is understood that the data illustrated below may have reasonable variation depending on the specific conditions and procedures used by the person conducting the testing.

The mark [1] stands for this setting: inhibition of the MIF enzyme in vitro, read-out: Tautomerase Inhibition pIC50 (converted).

For the compound `CCOC(=O)Cn1cnc2c(-n3ncc4ccccc43)nc(N3CCN(c4ccc(O)cc4)CC3)nc21` [Example 44, ethyl 2-(2-(4-(4-hydroxyphenyl)piperazin-1-yl)-6-(1H-indazol-1-yl)-9H-purin-9-yl)acetate], the IC50 under setting [1] is 100 to 977 nM.
Same read-out and setting: next, `O=C(O)Cn1cnc2c(-n3ncc4ccccc43)nc(N3CCN(c4ccc(O)cc4)CC3)nc21` [Example 45, 2-(2-(4-(4-hydroxyphenyl)piperazin-1-yl)-6-(1H-indazol-1-yl)-9H-purin-9-yl)acetic acid]: 10 to 97.7 nM; `O=C(O)Cn1cnc2nc(N3CCN(c4ccc(O)cc4)CC3)nc(-n3ncc4ccccc43)c21` [Example 46, 2-(2-(4-(4-hydroxyphenyl)piperazin-1-yl)-6-(1H-indazol-1-yl)-7H-purin-7-yl)acetic acid]: 100 to 977 nM; `NC(=O)Cn1cnc2c(-n3ncc4ccccc43)nc(N3CCN(c4ccc(O)cc4)CC3)nc21` [Example 47, 2-(2-(4-(4-hydroxyphenyl)piperazin-1-yl)-6-(1H-indazol-1-yl)-9H-purin-9-yl)acetamide]: 100 to 977 nM.
Consider `O=C(O)Cn1cnc2c(N3N=CC4C=CC=CC43)nc(N3CCN(c4ccccc4)CC3)nc21` (centres unmarked) [Example 48, 2-(6-(3a,7a-dihydro-1H-indazol-1-yl)-2-(4-phenylpiperazin-1-yl)-9H-purin-9-yl)acetic acid], for which the IC50 under setting [1] was 100 to 977 nM.
For the compound `O=C(O)Cn1cnc2c(N3N=CC4C=CC=CC43)nc(N3CCN(c4ccncc4)CC3)nc21` (centres unmarked) [Example 49, 2-(6-(3a,7a-dihydro-1H-indazol-1-yl)-2-(4-(pyridin-4-yl)piperazin-1-yl)-9H-purin-9-yl)acetic acid], under setting [1], the IC50 was greater than 10000 nM.
Consider `COc1ccc2cnn(-c3nc(N4CCN(c5ccc(O)cc5)CC4)nc4c3ncn4CC(=O)O)c2c1` [Example 50, 2-(2-(4-(4-hydroxyphenyl)piperazin-1-yl)-6-(6-methoxy-1H-indazol-1-yl)-9H-purin-9-yl)acetic acid], for which the IC50 under setting [1] is 1000 to 9770 nM.
Take `N#Cc1ccc2c(cnn2-c2nc(N3CCN(c4ccc(O)cc4)CC3)nc3c2ncn3CC(=O)O)c1` [Example 52, 2-(6-(5-cyano-1H-indazol-1-yl)-2-(4-(4-hydroxyphenyl)piperazin-1-yl)-9H-purin-9-yl)acetic acid]: under setting [1], the IC50 was 10 to 97.7 nM.
As to `CCS(=O)(=O)NC(=O)Cn1cnc2c(-n3ncc4ccccc43)nc(N3CCN(c4ccc(O)cc4)CC3)nc21` [Example 53, N-(ethylsulfonyl)-2-(2-(4-(4-hydroxyphenyl)piperazin-1-yl)-6-(1H-indazol-1-yl)-9H-purin-9-yl)acetamide], the IC50 under setting [1] was 10 to 97.7 nM.
On the same count and under the same terms, for `CC(C)S(=O)(=O)NC(=O)Cn1cnc2c(-n3ncc4ccccc43)nc(N3CCN(c4ccc(O)cc4)CC3)nc21` [Example 54, 2-(2-(4-(4-hydroxyphenyl)piperazin-1-yl)-6-(1H-indazol-1-yl)-9H-purin-9-yl)-N-(isopropylsulfonyl)acetamide] the value was 100 to 977 nM.
On to `O=C(Cn1cnc2c(-n3ncc4ccccc43)nc(N3CCN(c4ccc(O)cc4)CC3)nc21)NS(=O)(=O)C1CC1` [Example 55, N-(cyclopropylsulfonyl)-2-(2-(4-(4-hydroxyphenyl)piperazin-1-yl)-6-(1H-indazol-1-yl)-9H-purin-9-yl)acetamide], for which the IC50 by setting is: (FIGS. 1-5, read-out: pIC50 MIF tautomerase activity (converted)) no more than 100 nM; under setting [1], 10 to 97.7 nM.
Consider `CCCS(=O)(=O)NC(=O)Cn1cnc2c(-n3ncc4ccccc43)nc(N3CCN(c4ccc(O)cc4)CC3)nc21` [Example 56, 2-(2-(4-(4-hydroxyphenyl)piperazin-1-yl)-6-(1H-indazol-1-yl)-9H-purin-9-yl)-N-(propylsulfonyl)acetamide], for which the IC50 under setting [1] is 100 to 977 nM.
Still for that read-out and setting: next, `CS(=O)(=O)NC(=O)Cn1cnc2c(-n3ncc4ccccc43)nc(N3CCN(c4ccc(O)cc4)CC3)nc21` [Example 57, 2-(2-(4-(4-hydroxyphenyl)piperazin-1-yl)-6-(1H-indazol-1-yl)-9H-purin-9-yl)-N-(methylsulfonyl)acetamide]: 10 to 97.7 nM.

For the origin of these results see patent US20220144838A1, “Compounds as Inhibitors of Macrophage Migration Inhibitory Factor” (NANJING IMMUNOPHAGE BIOTECH CO., LTD., priority 2019, published 2022).
